According to ChEMBL document CHEMBL1130897, “Novel inhibitors of bacterial two-component systems with gram positive antibacterial activity: pharmacophore identification based on the screening hit closantel” (Bioorg Med Chem Lett, 1998):
≈ marks a conversion by molar mass, not a printed value.

Tests used:
[1] = biological target: T1, KinA/Spo0F (sporulation kinase A/sporulation initiation phosphotransferase F) (Bacillus subtilis (strain 168), UniProt P06628+P16497); assay: Inhibition of histidine protein kinase (KinA) phosphorylation in the presence of response regulator (Spo0F); format: protein assay
T1 sequence (P06628 whole entry): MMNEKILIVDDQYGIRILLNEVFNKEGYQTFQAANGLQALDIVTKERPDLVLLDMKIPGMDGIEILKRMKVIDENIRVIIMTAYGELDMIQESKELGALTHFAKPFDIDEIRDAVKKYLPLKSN
T1 sequence (P16497 whole entry): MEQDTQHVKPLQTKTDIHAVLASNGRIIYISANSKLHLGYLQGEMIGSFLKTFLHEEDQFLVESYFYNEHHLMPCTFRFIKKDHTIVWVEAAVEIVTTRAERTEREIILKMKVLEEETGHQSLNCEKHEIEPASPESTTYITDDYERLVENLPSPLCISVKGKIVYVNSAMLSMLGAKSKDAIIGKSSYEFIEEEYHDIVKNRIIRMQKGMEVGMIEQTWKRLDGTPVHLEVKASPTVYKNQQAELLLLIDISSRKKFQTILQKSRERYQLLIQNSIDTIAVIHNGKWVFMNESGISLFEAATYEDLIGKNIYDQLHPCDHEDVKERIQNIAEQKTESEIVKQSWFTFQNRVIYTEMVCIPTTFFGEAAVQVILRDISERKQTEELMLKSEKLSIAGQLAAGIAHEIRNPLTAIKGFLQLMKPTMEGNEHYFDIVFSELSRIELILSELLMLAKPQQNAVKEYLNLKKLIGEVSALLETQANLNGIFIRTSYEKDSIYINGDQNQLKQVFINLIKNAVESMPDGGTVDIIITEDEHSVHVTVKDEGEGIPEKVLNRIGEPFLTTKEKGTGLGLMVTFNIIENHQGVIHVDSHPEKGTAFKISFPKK

Enterococcus faecium = assay: Compound was tested for its antibacterial activity against Enterococcus faecium (Vancomycin resistant, VRE) OC 3312.; format: functional
Enterococcus faecalis = assay: Compound was tested for its antibacterial activity against Enterococcus faecalis OC 3041.; format: functional
Staphylococcus aureus [2] = assay: Compound was tested for its antibacterial activity against MRSA (methicillin resistant) OC 2089.; format: functional
Staphylococcus aureus [3] = assay: Compound was tested for its antibacterial activity against Staph aureus ATCC 29213.; format: functional
[4] = Partition coefficient (logP); format: physicochemical; conditions: octanol/water

SMILES	IC50 [1] [µM]	MIC (Enterococcus faecium) [µg/mL]	further results
O=C(Nc1ccc(Cl)c(Cl)c1)c1cc(Cl)c(O)c(Cl)c1	98	64 (≈ 182 µM)	MIC (Enterococcus faecalis): 64 µg/mL (≈ 182 µM); MIC (Staphylococcus aureus [2]): 16 µg/mL (≈ 45.6 µM); MIC (Staphylococcus aureus [3]): 16 µg/mL (≈ 45.6 µM)
Cc1cc(NC(=O)c2cc(I)c(O)c(I)c2)c(Cl)cc1C(C#N)c1ccc(Cl)cc1 (stereo unspecified)	9		
Cc1cc(N(C)C(=O)c2cc(I)cc(I)c2O)c(Cl)cc1C(C#N)c1ccc(Cl)cc1 (stereo unspecified)	> 500		
O=C(Nc1cc(Cl)cc(Cl)c1O)c1ccc(Cl)c(Cl)c1	> 500	1 (≈ 2.85 µM)	MIC (Enterococcus faecalis): 2 µg/mL (≈ 5.7 µM); MIC (Staphylococcus aureus [2]): 0.25 µg/mL (≈ 0.712 µM); MIC (Staphylococcus aureus [3]): 0.5 µg/mL (≈ 1.42 µM)
O=C(Nc1ccc(Cl)c(Cl)c1)c1cc(Cl)cc(Cl)c1O [3,3',4',5-TETRACHLOROSALICYLANILIDE]	45	0.5 (≈ 1.42 µM)	logP [4]: 4.8; MIC (Enterococcus faecalis): 0.5 µg/mL (≈ 1.42 µM); MIC (Staphylococcus aureus [2]): 0.25 µg/mL (≈ 0.712 µM); MIC (Staphylococcus aureus [3]): 0.5 µg/mL (≈ 1.42 µM)
CN[C@H](CC(C)C)C(=O)N[C@H]1C(=O)N[C@@H](CC(N)=O)C(=O)N[C@H]2C(=O)N[C@H]3C(=O)N[C@H](C(=O)N[C@H](C(=O)O)c4cc(O)cc(O)c4-c4cc3ccc4O)[C@H](O)c3ccc(c(Cl)c3)Oc3cc2cc(c3O[C@@H]2O[C@H](CO)[C@@H](O)[C@H](O)[C@H]2O[C@H]2C[C@](C)(N)[C@H](O)[C@H](C)O2)Oc2ccc(cc2Cl)[C@H]1O [VANCOMYCIN]		> 128	
O=C(Nc1ccc(Cl)c(Cl)c1)c1cc(Cl)cc(Cl)c1	> 500		
COc1c(I)cc(I)cc1C(=O)Nc1cc(C)c(C(C#N)c2ccc(Cl)cc2)cc1Cl (stereo unspecified)	> 500		
Oc1c(Cl)cc(Cl)cc1/C=C/c1ccc(Cl)c(Cl)c1	> 500		
Cc1onc(-c2ccccc2)c1C(=O)N[C@@H]1C(=O)N2[C@@H]1SC(C)(C)[C@@H]2C(=O)O [OXACILLIN]		> 64	MIC (Enterococcus faecalis): 16 µg/mL (≈ 39.9 µM); MIC (Staphylococcus aureus [2]): > 64 µg/mL; MIC (Staphylococcus aureus [3]): 0.25 µg/mL (≈ 0.623 µM)

Continued, in another order:

IC50 [1] [µM]	SMILES	MIC (Enterococcus faecium) [µg/mL]	further results
22	O=C(Nc1ccc(Cl)c(Cl)c1)c1cc(I)cc(I)c1O		
385	O=C(Nc1ccccc1)c1cc(Cl)cc(Cl)c1O		
365	O=C(Nc1ccc(Cl)c(Cl)c1)Nc1cc(Cl)cc(Cl)c1O		
> 500	O=C(NCc1ccc(Cl)c(Cl)c1)c1cc(Cl)cc(Cl)c1O		
4.8	Cc1cc(NC(=O)c2cc(Cl)cc(Cl)c2O)c(Cl)cc1C(C#N)c1ccc(Cl)cc1 (stereo unspecified)		
